These results are taken from patent US11117874B2, “Certain (2S)-N-[(1S)-1-cyano-2-phenylethyl]-1,4-oxazepane-2-carboxamides as dipeptidyl peptidase 1 inhibitors” (AstraZeneca AB, priority 2014, dated 2021).

SMILES strings stand for the structures.

One data set is described as follows: Test B: In-Vitro Competitive Aortic Tissue Binding Assay. The note with it: 100 μM compound pre-incubated overnight at 37° C. with rat aortic homogenate, competition with 100 μM [14C]4-amino-N-[(1S)-1-cyano-2-(4′-cyanobiphenyl-4-yl)ethyl]tetrahydro-2H-pyran-4-carboxamide; four categories. The method, then:
To assist the design of DPP1 inhibitors with a decreased risk of binding to elastin rich tissues, such as the aorta, the in-vitro competitive aortic binding assay disclosed below (Test B) was developed to facilitate the selection process.
Test B: In-Vitro Competitive Aortic Tissue Binding Assay
Aortic homogenate was prepared from the thoracic aortae of Han Wistar rats. Freshly isolated to thoracic aortae were frozen, and later thawed and stripped of non-elastic material.
Homogenate concentration was adjusted to 30 mg/mL in Puck's saline, and aliquots were stored at −80° C. until use. Positive and negative control compounds and test compounds were made up to 100 mM in DMSO, and added to 1 mL aliquots of aortic homogenate in Puck's saline for a final concentration of 100 μM. Homogenate samples were pre-incubated with test compounds at 37° C., rotating, overnight. [^14C]4-Amino-N-[(1S)-1-cyano-2-(4′-cyanobiphenyl-4-yl)ethyl]tetrahydro-2H-pyran-4-carboxamide was then added to all samples to a final concentration of 100 μM, and samples were incubated at 37° C., rotating, for a further 2 h. Protein was precipitated from each sample by the addition of 10 mL acetone, pre-chilled to −20° C. Samples were left overnight at −20° C. to allow complete precipitation. Precipitate was pelleted by centrifugation at 4,500×g at 4° C. for 20 min, an aliquot of supernatant was removed for analysis, and the remainder of the supernatant discarded. Precipitate was washed by resuspension in 10 mL 80% methanol in distilled water, and re-pelleted by centrifugation at 4,500×g at 4° C. for 20 min. […] After final wash, precipitate was air-dried, and dissolved overnight in 1 mL NCSII Tissue Solubiliser. 1 mL aliquots of supernatants were added to 5 mL Ultima Gold scintillation fluid (Perkin Elmer, Mass., U.S.A.), and 1 mL solubilised pellets were added to 5 mL Hionic-Fluor scintillation fluid (Perkin Elmer, Mass., U.S.A.). Radioactivity of samples was determined on a Beckman LS6500 multipurpose scintillation counter (Beckman Coulter, Ind., U.S.A.). […] Duplicate samples were tested for each compound on each experimental occasion, and at least two experiments were run for each test compound. […] 1-way ANOVA and to Bonferroni's multiple comparison tests were performed to calculate significance of differences from vehicle control.
In the case of `Cn1c(=O)oc2ccc(-c3ccc(C[C@@H](C#N)NC(=O)[C@@H]4CNCCCO4)cc3)cc21` [Example 2, (2S)—N-{(1S)-1-Cyano-2-[4-(3-methyl-2-oxo-2,3-dihydro-1,3-benzoxazol-5-yl)phenyl]ethyl}-1,4-oxazepane-2-carboxamide], the “Aortic Tissue Binding” value is “No binder”.

Turning to `N#Cc1ccc(-c2ccc(C[C@@H](C#N)NC(=O)[C@@H]3CCCCN3)cc2)cc1` [WO2009/074829 (Example 24)], the “Aortic Tissue Binding” value is “Binder”. For `Cn1c(=O)oc2ccc(-c3ccc(C[C@@H](C#N)NC(=O)C4(N)CCOCC4)cc3)cc21` [WO2010/128324 (Example 17)], the “Aortic Tissue Binding” value was “Strong binder”. Same read-out and setting: under `N#Cc1ccc(-c2ccc(C[C@@H](C#N)NC(=O)C3(N)CCOCC3)cc2)cc1` [WO2010/128324 (Ex. 3), 4-amino-N-[(1S)-1-cyano-2-(4′-cyanobiphenyl-4-yl)ethyl]tetrahydro-2H-pyran-4-carboxamide] stands “Strong binder (reference)”; under `Cn1c(=O)oc2ccc(-c3ccc(C[C@@H](C#N)NC(=O)[C@@H]4CCCCN4)cc3)cc21` [WO2009/074829 (Example 96)], “Medium binder”.

Assay in a further data set: not given
The note with it: described in literature (Schmidt et al. 1984); cited from earlier work.
On to `CC(c1ccc(Cl)c(Cl)c1)N1N=C(N)CC1=O` (stereo not drawn) [muzolimine], for which the “retention in the aorta in QWBA studies” value is given as “retained selectively in the aorta”.
